The results in this text go back to PMC6973051, “Proline‐Rich Peptides with Improved Antimicrobial Activity against E. coli, K. pneumoniae, and A. baumannii” (Chemmedchem, 2019).

In test [1] the test system is E. coli BW25113. Type of test: cell-based, Escherichia coli. The settings on record: BW25113, 18 h. The text has this:
(§1) The following bacterial strains were used: Escherichia coli BW25113, E. coli BW25113ΔsbmA (JW0368‐1, KEIO collection21); Acinetobacter baumannii ATCC 19606, Klebsiella pneumoniae ATCC 700603, Pseudomonas aeruginosa ATCC 27853 and Staphylococcus aureus ATCC 25923. The pathogenic E. coli EURL‐VTEC A07, E. coli EURL‐VTEC C07, E. coli SSI‐NN14, E. coli EA22, E. coli SSI‐OO15 and E. coli C679‐12 strains were generously provided by the European Union Reference Laboratory for E. coli, Department of Food Safety, Nutrition and Veterinary Public Health, Istituto Superiore di Sanità, Rome, Italy. All the strains were grown overnight in Müller‐Hinton broth (MHB, Difco) at 37 °C, with shaking (140 rpm). The day after, the overnight bacterial cultures were diluted approx. 1 : 40 in fresh MHB and incubated at 37 °C with shaking (140 rpm) until an OD600nm of ≈0.3 was reached. E. coli BW25113ΔsbmA was grown in the presence of 50 μg mL^−1 kanamycin.
(§2) Peptides were diluted in 100 μL of MHB to the concentration of 128 μM, dispensed in the first wells of a 96‐wells microtiter plate (round‐bottom) and serially two‐fold diluted with MHB into successive wells in a final volume of 50 μl. Subsequently, 50 μL of a bacterial suspension (5×10^5 CFU mL^−1) were added to each well, halving the final concentration of bacteria and peptides. Bacteria were added to MHB only as bacterial growth‐control, whereas 100 μl of MHB were used to check the medium sterility. The plate was incubated overnight at 37 °C (≈18 hours) and sealed with parafilm to minimise evaporation. The MIC was calculated as the first clear well without bacterial growth. If barely detectable growth was present, the OD600nm of the plate was measured by a multiplate reader Tecan (software Sunrise). The MIC was then calculated as the well whose OD620 was≤1 % of that of the untreated growth control.

In test [2] the test system is E. coli C679‐12 EAEC:0104. The class given is cell-based, Escherichia coli. The settings on record: C679‐12 EAEC:0104, 18 h.
From the text: as §1, §2

The subject of a further test is E. coli EA22 ETEC. The class given is cell-based, Escherichia coli. The settings on record: 18 h.
From the text: as §1, §2

The subject of test [3] is E. coli EURL‐VTEC A07 EPEC:O111. Type of test: cell-based, Escherichia coli. The settings on record: EURL‐VTEC A07 EPEC:O111, 18 h.
From the text: as §1, §2

Test [4] has as its system E. coli EURL‐VTEC C07 STEC:O157. The class given is cell-based, Escherichia coli. The settings on record: EURL‐VTEC C07 STEC:O157, 18 h.
From the text: as §1, §2

In another test the test system is E. coli SSI‐OO15 EIEC. The class given is cell-based, Escherichia coli. The note with it: 18 h.
From the text: as §1, §2

The test system of test [5] is A. baumannii ATCC 19606. The class given is cell-based, Acinetobacter baumannii. The note with it: ATCC 19606, 18 h.
From the text: as §1
Peptides were diluted in 100 μL of MHB to the concentration of 128 μM, dispensed in the first wells of a 96‐wells microtiter plate (round‐bottom) and serially two‐fold diluted with MHB into successive wells in a final volume of 50 μl. […] The MIC was calculated as the first clear well without bacterial growth. If barely detectable growth was present, the OD600nm of the plate was measured by a multiplate reader Tecan (software Sunrise). […]

Test [6] concerns P. aeruginosa ATCC 27853. The class given is cell-based, Pseudomonas aeruginosa. The note with it: ATCC 27853, 18 h.
From the text: as §1, §2

In test [7] the test system is S. aureus ATCC 25923. The class given is cell-based, Staphylococcus aureus. The note with it: ATCC 25923, 18 h.
From the text: as §1, §2

For test [8], the system named is E. coli BW25113. The class given is cell-based, Escherichia coli. The text has this:
(§3) Table 3 MIC and MBC of the native Bac5(1–17) (wt) and selected Bac5‐derivatives on pathogenic and reference bacterial strains. | column: MBC (μM) / wt; MBC (μM) / 258; MBC (μM) / 272; MBC (μM) / 278; MBC (μM) / 281; MBC (μM) / 291

Test [9] concerns K. pneumoniae ATCC 700603. Type of test: cell-based, Klebsiella pneumoniae.
From the text: as §3

The test system of test [10] is A. baumannii ATCC 19606. Type of test: cell-based, Acinetobacter baumannii.
From the text: as §3

The test system of test [11] is P. aeruginosa ATCC 27853. Type of test: cell-based, Pseudomonas aeruginosa.
From the text: as §3

The test system of test [12] is S. aureus ATCC 25923. Type of test: cell-based, Staphylococcus aureus.
From the text: as §3

Test [13] has as its system E. coli BW25113. Put plainly: Propidium iodide uptake by flow cytometry (membrane permeabilization). The note with it: 1 μM colistin (positive control), 30 min. The class given is cell-based, Escherichia coli. As for the experimental part: The bacterial cell integrity was controlled evaluating the propidium iodide (PI) uptake by flow‐cytometry on a Cytomics FC 500 (Beckman‐Coulter). 10^4 bacterial cells were acquired for each measurement. Mid‐log phase E. coli BW25113 cultures diluted to 10^6 CFU mL^−1 in MHB were exposed for 30 min to 4 μM and 16 μM peptides at 37 °C in the presence of 10 μg mL^−1 PI. Membrane permeabilization was calculated as the % PI‐positive cells, and membrane damage measuring the mean fluorescence intensity (MFI). An untreated control received sterile water instead of peptides. By contrast, bacteria were treated with 1 μM colistin as a permeabilizing control. Data are reported as the average ± standard deviation.

Ends that are not written are not given here. A value given as a limit tells only on which side of the number the result lay.

On to “RFRPPIRRPPIRPPFYP [wt, reference compound]”, for which the MIC against E. coli BW25113 [1] is 16 µM; in test [2] it was 16 µM; with E. coli EA22 ETEC, 2 µM; in test [3] it was 16 µM; in [4], >64 µM; with E. coli SSI‐OO15 EIEC it was 16 µM. The MIC in the test on A. baumannii ATCC 19606 [5], against P. aeruginosa ATCC 27853 [6] and with S. aureus ATCC 25923 [7] was >64 µM in each case. Further, the MBC (against E. coli BW25113 [8]; in test [9]; in the test on A. baumannii ATCC 19606 [10]; with P. aeruginosa ATCC 27853 [11]; against S. aureus ATCC 25923 [12]) was >64 µM throughout.
In the case of colistin, the “permeabilized bacterial cells (PI‐positive)” value with E. coli BW25113 [13] is ~100%.
Turning to RFRPPIRRPPIRPPFYR [compound 258], the MIC is 8 µM in the test on E. coli BW25113 [1]; 8 µM in [2]; 2 µM in the test on E. coli EA22 ETEC; 8 µM in test [3]; >64 µM in test [4]; 4 µM against E. coli SSI‐OO15 EIEC. Moreover, the figures for the MIC against A. baumannii ATCC 19606 [5], in the test with P. aeruginosa ATCC 27853 [6] and with S. aureus ATCC 25923 [7] were 64 µM, >64 µM and >64 µM, respectively. Further, the MBC against E. coli BW25113 [8] was 64 µM; in test [9] it was >64 µM; in the test on A. baumannii ATCC 19606 [10], 64 µM; with P. aeruginosa ATCC 27853 [11], >64 µM; against S. aureus ATCC 25923 [12], >64 µM.
